Assay results as given in patent US9255295B2, “Method for evaluating the sensitizing potential of a test compound” (IMMUNOSEARCH, priority 2010, dated 2016).

Columns and labels:
EPISKIN model = experiment: Sensitizing power: sensitizing potential retested at successive dilutions in the EPISKIN model
[1] = system: genes specific for sensitization (BRAK, CTSS, DAPK2, FABP4, HSP27, IL18, HSP90, IL1R2, TPSAB1, CXCR1, DEFB1, DHFR, EHF, IVL, KRT4, MELANA, NGAL, PDZK1IP1, PI3 …); experiment: Expression of the other (non-ARE) sensitization-specific genes in EPISKIN reconstructed skin (quantitative RT-PCR); format: cell-based, human; conditions: for BRAK expression / DHFR expression / HSP90 expression / IL18 expression / KRT4 expression / MELANA expression / PDZK1iP1 expression / SERPINB3 expression: compared to the control

## CC=Cc1ccc(O)c(OC)c1 [Isoeugenol]
EPISKIN model; 0.1%
  sensitizing potential (conclusion): Sensitizing
EPISKIN model; 1%
  sensitizing potential (conclusion): Sensitizing
EPISKIN model; 10%
  sensitizing potential (conclusion): Sensitizing
EPISKIN model; 50%
  sensitizing potential (conclusion): Sensitizing
EPISKIN model; from successive dilutions
  sensitizing power (class): MODERATE
[1]; 0.1%
  BRAK NUMBER OF GENES grade: 0 (if this expression is lower, the grade is 0)
  CTSS expression compared to control: 0.9
  CTSS grade (NUMBER OF GENES): 0 (if this expression is lower, the grade is 0)
  CXCR1 expression compared to control: 0.7
  CXCR1 grade (NUMBER OF GENES): 0 (if this expression is lower, the grade is 0)
  DAPK2 expression compared to control: 1.1
  DAPK2 grade (NUMBER OF GENES): 0 (if this expression is lower, the grade is 0)
  DEFB1 expression compared to control: 1.0
  DEFB1 grade (NUMBER OF GENES): 0 (if this expression is lower, the grade is 0)
  DHFR NUMBER OF GENES grade: 0 (if this expression is lower, the grade is 0)
  EHF expression compared to control: 1.5
  EHF grade (NUMBER OF GENES): 1 (If the expression is greater than 1.3 compared to the control, a grade of 11s given)
  FABP4 expression compared to control: 0.8
  FABP4 grade (NUMBER OF GENES): 0 (if this expression is lower, the grade is 0)
  HSP27 expression compared to control: 1.0
  HSP27 grade (NUMBER OF GENES): 0 (if this expression is lower, the grade is 0)
  HSP90 NUMBER OF GENES grade: 0 (if this expression is lower, the grade is 0)
  IL18 NUMBER OF GENES grade: 0 (if this expression is lower, the grade is 0)
  IVL expression compared to control: 1.3
  IVL grade (NUMBER OF GENES): 1 (If the expression is greater than 1.3 compared to the control, a grade of 11s given)
  KRT4 NUMBER OF GENES grade: 0 (if this expression is lower, the grade is 0)
  MELANA NUMBER OF GENES grade: 0 (if this expression is lower, the grade is 0)
  NGAL expression compared to control: 1.1
  NGAL grade (NUMBER OF GENES): 0 (if this expression is lower, the grade is 0)
  P13 expression compared to control: 1.1
  P13 grade (NUMBER OF GENES): 0 (if this expression is lower, the grade is 0)
  PDZK1iP1 NUMBER OF GENES grade: 0 (if this expression is lower, the grade is 0)
  SENS >1.3 (number of genes): 2
  SERPINB3 NUMBER OF GENES grade: 0 (if this expression is lower, the grade is 0)
  TOTAL SENS (number of genes): 2
  BRAK expression: 0.6
  DHFR expression: 0.8
  HSP90 expression: 0.9
  IL18 expression: 0.6
  KRT4 expression: 1.2
  MELANA expression: 0.9
  PDZK1iP1 expression: 1.0
  SERPINB3 expression: 1.2
[1]; 1%
  BRAK NUMBER OF GENES grade: 0 (if this expression is lower, the grade is 0)
  CTSS expression compared to control: 0.8
  CTSS grade (NUMBER OF GENES): 0 (if this expression is lower, the grade is 0)
  CXCR1 expression compared to control: 1.1
  CXCR1 grade (NUMBER OF GENES): 0 (if this expression is lower, the grade is 0)
  DAPK2 expression compared to control: 0.9
  DAPK2 grade (NUMBER OF GENES): 0 (if this expression is lower, the grade is 0)
  DEFB1 expression compared to control: 1.1
  DEFB1 grade (NUMBER OF GENES): 0 (if this expression is lower, the grade is 0)
  DHFR NUMBER OF GENES grade: 0 (if this expression is lower, the grade is 0)
  EHF expression compared to control: 1.2
  EHF grade (NUMBER OF GENES): 0 (if this expression is lower, the grade is 0)
  FABP4 expression compared to control: 0.9
  FABP4 grade (NUMBER OF GENES): 0 (if this expression is lower, the grade is 0)
  HSP27 expression compared to control: 0.8
  HSP27 grade (NUMBER OF GENES): 0 (if this expression is lower, the grade is 0)
  HSP90 NUMBER OF GENES grade: 1 (If the expression is greater than 1.3 compared to the control, a grade of 11s given)
  IL18 NUMBER OF GENES grade: 0 (if this expression is lower, the grade is 0)
  IVL expression compared to control: 1.4
  IVL grade (NUMBER OF GENES): 1 (If the expression is greater than 1.3 compared to the control, a grade of 11s given)
  KRT4 NUMBER OF GENES grade: 0 (if this expression is lower, the grade is 0)
  MELANA NUMBER OF GENES grade: 1 (If the expression is greater than 1.3 compared to the control, a grade of 11s given)
  NGAL expression compared to control: 1.1
  NGAL grade (NUMBER OF GENES): 0 (if this expression is lower, the grade is 0)
  P13 expression compared to control: 0.9
  P13 grade (NUMBER OF GENES): 0 (if this expression is lower, the grade is 0)
  PDZK1iP1 NUMBER OF GENES grade: 0 (if this expression is lower, the grade is 0)
  SENS >1.3 (number of genes): 5
  SERPINB3 NUMBER OF GENES grade: 0 (if this expression is lower, the grade is 0)
  TOTAL SENS (number of genes): 5
  BRAK expression: 0.9
  DHFR expression: 0.9
  HSP90 expression: 1.3
  IL18 expression: 1.1
  KRT4 expression: 0.8
  MELANA expression: 1.4
  PDZK1iP1 expression: 1.1
  SERPINB3 expression: 1.2
[1]; 10%
  BRAK NUMBER OF GENES grade: 0 (if this expression is lower, the grade is 0)
  CTSS expression compared to control: 1.5
  CTSS grade (NUMBER OF GENES): 1 (If the expression is greater than 1.3 compared to the control, a grade of 11s given)
  CXCR1 expression compared to control: 1.6
  CXCR1 grade (NUMBER OF GENES): 1 (If the expression is greater than 1.3 compared to the control, a grade of 11s given)
  DAPK2 expression compared to control: 0.9
  DAPK2 grade (NUMBER OF GENES): 0 (if this expression is lower, the grade is 0)
  DEFB1 expression compared to control: 1.5
  DEFB1 grade (NUMBER OF GENES): 1 (If the expression is greater than 1.3 compared to the control, a grade of 11s given)
  DHFR NUMBER OF GENES grade: 0 (if this expression is lower, the grade is 0)
  EHF expression compared to control: 1.4
  EHF grade (NUMBER OF GENES): 1 (If the expression is greater than 1.3 compared to the control, a grade of 11s given)
  FABP4 expression compared to control: 1.2
  FABP4 grade (NUMBER OF GENES): 0 (if this expression is lower, the grade is 0)
  HSP27 expression compared to control: 0.9
  HSP27 grade (NUMBER OF GENES): 0 (if this expression is lower, the grade is 0)
  HSP90 NUMBER OF GENES grade: 1 (If the expression is greater than 1.3 compared to the control, a grade of 11s given)
  IL18 NUMBER OF GENES grade: 0 (if this expression is lower, the grade is 0)
  IVL expression compared to control: 1.9
  IVL grade (NUMBER OF GENES): 1 (If the expression is greater than 1.3 compared to the control, a grade of 11s given)
  KRT4 NUMBER OF GENES grade: 0 (if this expression is lower, the grade is 0)
  MELANA NUMBER OF GENES grade: 0 (if this expression is lower, the grade is 0)
  NGAL expression compared to control: 2.1
  NGAL grade (NUMBER OF GENES): 1 (If the expression is greater than 1.3 compared to the control, a grade of 11s given)
  P13 expression compared to control: 1.4
  P13 grade (NUMBER OF GENES): 1 (If the expression is greater than 1.3 compared to the control, a grade of 11s given)
  PDZK1iP1 NUMBER OF GENES grade: 0 (if this expression is lower, the grade is 0)
  SENS >1.3 (number of genes): 10
  SERPINB3 NUMBER OF GENES grade: 0 (if this expression is lower, the grade is 0)
  TOTAL SENS (number of genes): 10
  BRAK expression: 0.8
  DHFR expression: 0.9
  HSP90 expression: 1.3
  IL18 expression: 0.7
  KRT4 expression: 1.0
  MELANA expression: 0.6
  PDZK1iP1 expression: 1.0
  SERPINB3 expression: 1.1
[1]; 50%
  BRAK NUMBER OF GENES grade: 0 (if this expression is lower, the grade is 0)
  CTSS expression compared to control: 1.4
  CTSS grade (NUMBER OF GENES): 1 (If the expression is greater than 1.3 compared to the control, a grade of 11s given)
  CXCR1 expression compared to control: 2.6
  CXCR1 grade (NUMBER OF GENES): 1 (If the expression is greater than 1.3 compared to the control, a grade of 11s given)
  DAPK2 expression compared to control: 1.4
  DAPK2 grade (NUMBER OF GENES): 1 (If the expression is greater than 1.3 compared to the control, a grade of 11s given)
  DEFB1 expression compared to control: 2.1
  DEFB1 grade (NUMBER OF GENES): 1 (If the expression is greater than 1.3 compared to the control, a grade of 11s given)
  DHFR NUMBER OF GENES grade: 0 (if this expression is lower, the grade is 0)
  EHF expression compared to control: 2.0
  EHF grade (NUMBER OF GENES): 1 (If the expression is greater than 1.3 compared to the control, a grade of 11s given)
  FABP4 expression compared to control: 1.8
  FABP4 grade (NUMBER OF GENES): 1 (If the expression is greater than 1.3 compared to the control, a grade of 11s given)
  HSP27 expression compared to control: 1.2
  HSP27 grade (NUMBER OF GENES): 0 (if this expression is lower, the grade is 0)
  HSP90 NUMBER OF GENES grade: 1 (If the expression is greater than 1.3 compared to the control, a grade of 11s given)
  IL18 NUMBER OF GENES grade: 0 (if this expression is lower, the grade is 0)
  IVL expression compared to control: 2.8
  IVL grade (NUMBER OF GENES): 1 (If the expression is greater than 1.3 compared to the control, a grade of 11s given)
  KRT4 NUMBER OF GENES grade: 0 (if this expression is lower, the grade is 0)
  MELANA NUMBER OF GENES grade: 0 (if this expression is lower, the grade is 0)
  NGAL expression compared to control: 2.7
  NGAL grade (NUMBER OF GENES): 1 (If the expression is greater than 1.3 compared to the control, a grade of 11s given)
  P13 expression compared to control: 1.7
  P13 grade (NUMBER OF GENES): 1 (If the expression is greater than 1.3 compared to the control, a grade of 11s given)
  PDZK1iP1 NUMBER OF GENES grade: 0 (if this expression is lower, the grade is 0)
  SENS >1.3 (number of genes): 13
  SERPINB3 NUMBER OF GENES grade: 1 (If the expression is greater than 1.3 compared to the control, a grade of 11s given)
  TOTAL SENS (number of genes): 13
  BRAK expression: 0.6
  DHFR expression: 0.9
  HSP90 expression: 1.7
  IL18 expression: 0.8
  KRT4 expression: 1.2
  MELANA expression: 0.4
  PDZK1iP1 expression: 1.1
  SERPINB3 expression: 1.5
